According to PubChem BioAssay AID1963854 (Molecular Pharmacology Branch, DTP, NCI, 2024):

Tested on: 186277-243-T-J2-PDC complex spheroid viability
Experiment: Anticancer human tumor 186277-243-T-J2-PDC patient-derived colon adenocarcinoma cell line growth inhibition [POLQ]
Conditions: for IC50: curve of first compound; for viability, T/C: stronger effect = lower value
Outline: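 PDC + HUVEC + MSC complex spheroids; POLQ inhibitors ± partner drugs; top conc. at/near clinical Cmax, else 10 microM (SN-38 1 microM), half-log dilutions; 37 degrees C, 5% CO2.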

[1] = second compound 0.0316 µM, first compound 0.0316 µM
[2] = second compound 0.0316 µM, first compound 0.1 µM
[3] = second compound 0.0316 µM, first compound 0.316 µM
[4] = second compound 0.0316 µM, first compound 1 µM
[5] = second compound 0.0316 µM, first compound 3.16 µM
[6] = second compound 0.0316 µM, first compound 10 µM
[7] = second compound 0.1 µM, first compound 0.0316 µM
[8] = second compound 0.1 µM, first compound 0.1 µM
[9] = second compound 0.1 µM, first compound 0.316 µM
[10] = second compound 0.1 µM, first compound 1 µM
[11] = second compound 0.1 µM, first compound 3.16 µM
[12] = second compound 0.1 µM, first compound 10 µM
[13] = second compound 0.316 µM, first compound 0.0316 µM
[14] = second compound 0.316 µM, first compound 0.1 µM
[15] = second compound 0.316 µM, first compound 0.316 µM
[16] = second compound 0.316 µM, first compound 1 µM
[17] = second compound 0.316 µM, first compound 3.16 µM
[18] = second compound 0.316 µM, first compound 10 µM
[19] = second compound 1 µM, first compound 0.0316 µM
[20] = second compound 1 µM, first compound 0.1 µM
[21] = second compound 1 µM, first compound 0.316 µM
[22] = second compound 1 µM, first compound 1 µM
[23] = second compound 1 µM, first compound 3.16 µM
[24] = second compound 1 µM, first compound 10 µM
[25] = second compound 3.16 µM, first compound 0.0316 µM
[26] = second compound 3.16 µM, first compound 0.1 µM
[27] = second compound 3.16 µM, first compound 0.316 µM
[28] = second compound 3.16 µM, first compound 1 µM
[29] = second compound 3.16 µM, first compound 3.16 µM
[30] = second compound 3.16 µM, first compound 10 µM
[31] = second compound 10 µM, first compound 0.0316 µM
[32] = second compound 10 µM, first compound 0.1 µM
[33] = second compound 10 µM, first compound 0.316 µM
[34] = second compound 10 µM, first compound 1 µM
[35] = second compound 10 µM, first compound 3.16 µM
[36] = second compound 10 µM, first compound 10 µM
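Further: spheroids exposed to compounds for seven days.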
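Wherever viability, T/C is given: 100% = DMSO vehicle control viability.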

O=C(Nc1ccc(O)c(NS(=O)(=O)c2ccc(F)cc2)c1)c1ccc(-c2ccccc2)cc1 + Nc1ccc(C#CCN(C(=O)Cc2ncc(C(F)(F)F)cc2C(F)(F)F)c2ccc(F)cc2)nn1
IC50 (second compound 0.0316 µM): > 10 µM | IC50 (second compound 0.1 µM): > 10 µM | IC50 (second compound 0.316 µM): > 10 µM | IC50 (second compound 1 µM): > 10 µM | IC50 (second compound 3.16 µM): > 10 µM | IC50 (second compound 10 µM): > 10 µM | viability, T/C [1]: 117% | viability, T/C [2]: 91% | viability, T/C [3]: 92.4% | viability, T/C [4]: 89.4% | viability, T/C [5]: 99.8% | viability, T/C [6]: 110% | viability, T/C [7]: 95.5% | viability, T/C [8]: 88.8% | viability, T/C [9]: 96.7% | viability, T/C [10]: 86.5% | viability, T/C [11]: 89.9% | viability, T/C [12]: 98% | viability, T/C [13]: 97.6% | viability, T/C [14]: 96% | viability, T/C [15]: 97.5% | viability, T/C [16]: 96.7% | viability, T/C [17]: 101% | viability, T/C [18]: 107% | viability, T/C [19]: 101% | viability, T/C [20]: 96.3% | viability, T/C [21]: 92.3% | viability, T/C [22]: 81.9% | viability, T/C [23]: 103% | viability, T/C [24]: 99.9% | viability, T/C [25]: 96.3% | viability, T/C [26]: 80.8% | viability, T/C [27]: 104% | viability, T/C [28]: 96.7% | viability, T/C [29]: 103% | viability, T/C [30]: 95.9% | viability, T/C [31]: 103% | viability, T/C [32]: 87.5% | viability, T/C [33]: 91.2% | viability, T/C [34]: 104% | viability, T/C [35]: 97.2% | viability, T/C [36]: 99.2%

CCc1cc2c(N3CCc4c(cc(Cn5ccnc5)cc4-c4cn(C)nc4C(F)(F)F)C3=O)ccnc2c(OC)n1 + Cc1cccc(N(C)C(=O)C2C(O)CCN2c2nc(C)cc(C(F)(F)F)c2C#N)c1
IC50 (second compound 0.0316 µM): > 10 µM | IC50 (second compound 0.1 µM): > 10 µM | IC50 (second compound 0.316 µM): > 10 µM | IC50 (second compound 1 µM): > 10 µM | IC50 (second compound 3.16 µM): > 10 µM | IC50 (second compound 10 µM): > 10 µM | viability, T/C [1]: 96.1% | viability, T/C [2]: 82.8% | viability, T/C [3]: 96.2% | viability, T/C [4]: 96.2% | viability, T/C [5]: 106% | viability, T/C [6]: 100% | viability, T/C [7]: 90.7% | viability, T/C [8]: 98.5% | viability, T/C [9]: 107% | viability, T/C [10]: 88.6% | viability, T/C [11]: 112% | viability, T/C [12]: 103% | viability, T/C [13]: 96.7% | viability, T/C [14]: 95.2% | viability, T/C [15]: 97.2% | viability, T/C [16]: 106% | viability, T/C [17]: 109% | viability, T/C [18]: 107% | viability, T/C [19]: 102% | viability, T/C [20]: 127% | viability, T/C [21]: 107% | viability, T/C [22]: 100% | viability, T/C [23]: 93.6% | viability, T/C [24]: 102% | viability, T/C [25]: 93.8% | viability, T/C [26]: 97.3% | viability, T/C [27]: 100% | viability, T/C [28]: 118% | viability, T/C [29]: 119% | viability, T/C [30]: 106% | viability, T/C [31]: 114% | viability, T/C [32]: 94.7% | viability, T/C [33]: 111% | viability, T/C [34]: 96.8% | viability, T/C [35]: 108% | viability, T/C [36]: 109%

CC1COCCN1c1cc(-c2ccnn2C)c2ccnc(-c3ccn[nH]3)c2n1 (stereo not drawn) + Cc1cccc(N(C)C(=O)C2C(O)CCN2c2nc(C)cc(C(F)(F)F)c2C#N)c1
IC50 (second compound 0.0316 µM): 0.0415 µM | IC50 (second compound 0.1 µM): 0.0468 µM | IC50 (second compound 0.316 µM): 0.0504 µM | IC50 (second compound 1 µM): 0.0489 µM | IC50 (second compound 3.16 µM): 0.0468 µM | IC50 (second compound 10 µM): 0.0417 µM | viability, T/C [1]: 61.5% | viability, T/C [2]: 13% | viability, T/C [3]: 5% | viability, T/C [4]: 4.41% | viability, T/C [5]: 4.26% | viability, T/C [6]: 4.75% | viability, T/C [7]: 69.2% | viability, T/C [8]: 12.7% | viability, T/C [9]: 5.72% | viability, T/C [10]: 4.22% | viability, T/C [11]: 3.97% | viability, T/C [12]: 4.43% | viability, T/C [13]: 74.4% | viability, T/C [14]: 14.2% | viability, T/C [15]: 5.49% | viability, T/C [16]: 4.49% | viability, T/C [17]: 3.63% | viability, T/C [18]: 4.89% | viability, T/C [19]: 72.3% | viability, T/C [20]: 13.7% | viability, T/C [21]: 6.05% | viability, T/C [22]: 4.53% | viability, T/C [23]: 4.55% | viability, T/C [24]: 5.17% | viability, T/C [25]: 68.1% | viability, T/C [26]: 15.1% | viability, T/C [27]: 5.47% | viability, T/C [28]: 4.21% | viability, T/C [29]: 4.54% | viability, T/C [30]: 4.6% | viability, T/C [31]: 62.2% | viability, T/C [32]: 11.4% | viability, T/C [33]: 4.96% | viability, T/C [34]: 3.76% | viability, T/C [35]: 5.16% | viability, T/C [36]: 4.53%

COc1ccc([C@@H](O)c2cc(-c3ncnc4cc(N5CCOCC5)ccc34)c(F)cc2Cl)nn1 + Cc1cccc(N(C)C(=O)C2C(O)CCN2c2nc(C)cc(C(F)(F)F)c2C#N)c1
IC50 (second compound 0.0316 µM): 5.9 µM | IC50 (second compound 0.1 µM): 5.56 µM | IC50 (second compound 0.316 µM): 6.69 µM | IC50 (second compound 1 µM): 6.39 µM | IC50 (second compound 3.16 µM): 5.81 µM | IC50 (second compound 10 µM): 6.17 µM | viability, T/C [1]: 102% | viability, T/C [2]: 105% | viability, T/C [3]: 94.9% | viability, T/C [4]: 110% | viability, T/C [5]: 74.3% | viability, T/C [6]: 29.4% | viability, T/C [7]: 101% | viability, T/C [8]: 112% | viability, T/C [9]: 109% | viability, T/C [10]: 97.9% | viability, T/C [11]: 71.3% | viability, T/C [12]: 28.1% | viability, T/C [13]: 90.4% | viability, T/C [14]: 105% | viability, T/C [15]: 101% | viability, T/C [16]: 104% | viability, T/C [17]: 86.2% | viability, T/C [18]: 30.4% | viability, T/C [19]: 100% | viability, T/C [20]: 107% | viability, T/C [21]: 97% | viability, T/C [22]: 98.1% | viability, T/C [23]: 81% | viability, T/C [24]: 30% | viability, T/C [25]: 107% | viability, T/C [26]: 114% | viability, T/C [27]: 109% | viability, T/C [28]: 99.4% | viability, T/C [29]: 76.9% | viability, T/C [30]: 26.2% | viability, T/C [31]: 101% | viability, T/C [32]: 102% | viability, T/C [33]: 125% | viability, T/C [34]: 109% | viability, T/C [35]: 84.3% | viability, T/C [36]: 25.1%
